The text below walks through data of PubChem BioAssay (NCI).

Holding throughout (test): growth of human tumour cells (NCI), 48 h
The test system of test [1] is A498 renal.
For test [2], the system named is BT-549 breast.
The test system of test [3] is HCT-116 colon.
Test [4] has as its system HCT-15 colon.
Test [5] deals with NCI-H226 lung.
Test [6] has as its system OVCAR-4 ovarian.
Test [7] concerns SF-295 CNS.
The test system of test [8] is SK-MEL-5 melanoma.
Test [9] has as its system UO-31 renal.
The subject of test [10] is HL-60(TB) leukemia.

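Values below derive from 48-hour exposures of cells grown in 96-well plates, with endpoints linearly interpolated between the two concentrations bracketing the appropriate inhibition level. TGI: concentration producing complete growth inhibition.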

As for `NC(=O)c1cc2ccccc2c(N=Nc2ccccc2)c1O`, the TGI in test [1], in [2], in [3], in [4], in [5] and in test [6] was over 100 µM each time. Moreover, the TGI in [7], in test [8] and in [9] was over 100 µM each time.

For the compound `Nc1nc(Cl)cc(NCC2(CO)CC(CCCCc3ccccc3)C2)n1` (stereo unspecified), the TGI is over 100 µM in test [1]; over 100 µM in test [2]; over 100 µM in [3]; over 100 µM in test [4]; 38.3 µM in test [10]; over 100 µM in test [5]. Also, the TGI in test [6], in test [7] and in test [8] was over 100 µM each time.

Consider `CCOC(=O)Nc1ccc(S(=O)(=O)Nc2ccc(Br)cc2)cc1`, for which the TGI in test [1] was 48.4 µM; in test [2], over 100 µM; in [3] it was over 100 µM; in [4] it was over 100 µM; in [10] it was over 100 µM; in [6], 57.1 µM. Besides, the TGI is 97.8 µM in test [7], 88.7 µM in test [8] and over 100 µM in [9].

`CCC1OC2C(CC=C(C)C)=C3OC(C)(O)C(C)(CC)C(O)C3=C3OC(=O)C=C1C32` (stereo unspecified): the TGI was over 100 µM in [1]; 71 µM in test [2]; over 100 µM in test [3]; over 100 µM in test [4]; over 100 µM in test [5]; over 100 µM in test [6]. In addition, the TGI in test [7], in test [8] and in test [9] was over 100 µM each time.

`N=C(/C=C/c1ccc(-c2cn3cc(/C=C/C(=N)N4CCOCC4)ccc3n2)cc1)N1CCOCC1`: the TGI in test [1], in test [2], in test [3], in test [4], in [5] and in test [6] was over 100 µM each time. The TGI in test [7], in test [8] and in test [9] was over 100 µM each time.

Turning to `Fc1ccc(C(=NCc2ccccc2)N2CCOCC2)cc1`, the TGI in test [1], in [2], in test [3], in [4], in test [10] and in [5] was over 100 µM each time. Further, the TGI in test [7], in test [8] and in test [9] was over 100 µM each time.

In the case of `O=C(/C=C1\N=C(c2ccccc2)N(c2ccc3c(c2)Sc2cc(N4C(=O)/C(=C/C(=O)/C=C/c5ccccc5)N=C4c4ccccc4)ccc2N3)C1=O)/C=C/c1ccccc1`, the TGI in [1] is 67.8 µM; in [2], 52.6 µM; in test [3], over 100 µM; in test [4] it was over 100 µM; in test [10] it was over 100 µM; in test [6] it was 41.8 µM. The TGI in test [7] was 57 µM; in test [8] it was 33.5 µM; in test [9], over 100 µM.

`Cc1ccc(S(=O)/C=C(\NC(=O)OCc2ccccc2)C(F)(F)F)cc1` (stereo unspecified): the TGI in test [2] was over 100 µM; in test [3] it was over 100 µM; in test [4], over 100 µM; in test [10] it was 42 µM; in test [5] it was over 100 µM; in test [6] it was over 100 µM. For the same compound, the TGI was over 100 µM in test [7], over 100 µM in test [8] and 73.4 µM in test [9].

For `COC(=O)CP1(=O)OC2C(C3CCC2(C)C3(C)C)N1c1cc(C(F)(F)F)cc(C(F)(F)F)c1` (stereo unspecified), the TGI in test [1] is over 100 µM; in test [2], 71.8 µM; in [3], 40.7 µM; in test [4] it was 97.5 µM; in test [5] it was 71.7 µM; in test [6], over 100 µM. The TGI was 48.2 µM in test [7], over 100 µM in test [8] and over 100 µM in test [9].

On to `CC(=O)c1nc2ccccc2n1CC(=O)c1ccc([N+](=O)[O-])cc1`, for which the TGI was over 100 µM in test [1]; 52.6 µM in test [2]; 25.1 µM in [3]; over 100 µM in test [4]; over 100 µM in [10]; 57.9 µM in [5]. Further, the TGI in [6] was over 100 µM; in test [7], 36.1 µM; in test [9], 45.9 µM.

Regarding `CC(=O)NC1C(OCC(=O)NC(C)C(=O)NC(CCC(=O)NCCCCCNc2ccc([N+](=O)[O-])c3[nH]c4ccccc4c(=O)c23)C(N)=O)C(O)C(CO)OC1(C)OCc1ccccc1` (stereo unspecified), the TGI in test [1], in [2], in [3], in test [4], in test [5] and in test [6] was over 50 µM each time. Besides, the TGI in test [7], in [8] and in [9] was over 50 µM each time.

Take `S=C1c2cc(Cl)ccc2NC(=NC2CCCC2)C2CSCN12` (stereo unspecified): the TGI in test [1], in test [2], in test [3], in [4], in test [5] and in test [6] was over 100 µM in each case. The TGI in test [7], in test [8] and in [9] was over 100 µM in each case.

`COCOc1cc(OC)ccc1C=O`: the TGI in [2], in [3], in test [4], in test [10], in test [5] and in [6] was over 100 µM throughout. The TGI in test [7], in test [8] and in [9] was over 100 µM throughout.

In the case of `Cc1nc2c(=O)[nH]c(=O)nc-2n(CCO)c1C`, the TGI in test [1], in test [2], in test [3], in [4], in [5] and in [6] was over 100 µM throughout. Besides, the TGI in test [7], in test [8] and in test [9] was over 100 µM in each case.
